# From patent publication US10450297B2, “Sulfonyl amide derivatives for the treatment of abnormal cell growth” (Pfizer, Inc., priority 2007, dated 2019)
# Target: FAK kinase (catalytic construct FAK(410-689)) (Homo sapiens (Human), UniProt Q05397)
# Assay: FAKcd kinase ELISA (inhibition of poly-glu-tyr phosphorylation by FAK(410-689))
# Assay type: biochemical
# Conditions: 50 μM final ATP
# FAK kinase (catalytic construct FAK(410-689)), sequence (Q05397 410-689): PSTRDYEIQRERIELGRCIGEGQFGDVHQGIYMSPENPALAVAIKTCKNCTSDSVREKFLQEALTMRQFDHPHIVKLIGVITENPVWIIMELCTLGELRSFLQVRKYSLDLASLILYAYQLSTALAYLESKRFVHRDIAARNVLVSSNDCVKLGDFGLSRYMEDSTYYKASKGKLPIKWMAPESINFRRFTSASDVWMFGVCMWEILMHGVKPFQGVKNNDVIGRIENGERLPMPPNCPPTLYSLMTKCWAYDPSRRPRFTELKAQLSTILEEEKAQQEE
row,SMILES,IC50
1,"CN(C(=O)c1cccc(Nc2ncc(C(F)(F)F)c(NCc3cccnc3N(C)S(C)(=O)=O)n2)c1)C1CCCC1 [Compound 131, N-cyclopentyl-N-methyl-3-({4-[({2-[methyl(methylsulfonyl)amino]pyridin-3-yl}methyl)amino]-5-(trifluoromethyl)pyrimidin-2-yl}amino)benzamide]",10.8 nM
2,"COCCCNC(=O)c1cccc(Nc2ncc(C(F)(F)F)c(NCc3cccnc3N(C)S(C)(=O)=O)n2)c1 [Compound 149, N-(3-methoxypropyl)-3-({4-[({2-[methyl(methylsulfonyl)amino]pyridin-3-yl}methyl)amino]-5-(trifluoromethyl)pyrimidin-2-yl}amino)benzamide]",1.51 nM
3,"CC(=O)c1ccc(Nc2ncc(C(F)(F)F)c(NCc3cccnc3N(C)S(C)(=O)=O)n2)cc1 [Compound 311, N-{3-[({2-[(4-acetylphenyl)amino]-5-(trifluoromethyl)pyrimidin-4-yl}amino)methyl]pyridin-2-yl}-N-methylmethane-sulfonamide]",1 nM
4,"CN(c1ncccc1CNc1nc(Nc2cccc(C(=O)OC(C)(C)C)c2)ncc1C(F)(F)F)S(C)(=O)=O [Example 9, tert-butyl 3-({4-[({2-[methyl(methylsulfonyl)amino]pyridin-3-yl}methyl)amino]-5-(trifluoromethyl)pyrimidin-2-yl}amino)benzoate]",0.6 nM
5,"CN(c1ncccc1CNc1nc(Nc2ccc(C(=O)N3CC[C@@H](O)C3)cc2)ncc1C(F)(F)F)S(C)(=O)=O [Compound 249, N-{3-[({2-[(4-{[(3R)-3-hydroxypyrrolidin-1-yl]carbonyl}phenyl)amino]-5-(trifluoromethyl)pyrimidin-4-yl}amino)methyt]pyridin-2-yl}-N-methylmethane-sulfonamide]",1.91 nM
6,"CC(C)NC(=O)c1cccc(Nc2ncc(C(F)(F)F)c(NCc3cccnc3N(C)S(C)(=O)=O)n2)c1 [Compound 189, N-isopropyl-3-({4-[({2-[methyl(methylsulfonyl)amino]pyridin-3-yl}methyl)amino]-5-(trifluoromethyl)pyrimidin-2-yl}amino)benzamide]",4.3 nM
7,"CN(C)C1CN(C(=O)c2ccc(Nc3ncc(C(F)(F)F)c(NCc4cccnc4N(C)S(C)(=O)=O)n3)cc2)C1 [Compound 279, N-{3-[({2-[(4-{[3-(dimethylamino)azelidin-1-yl]carbonyl}phenyl)amino]-5-(trifluoromethyl)pyrimidin-4-yl}amino)methyl]pyridin-2-yl}-N-methylmethane-sulfonamide]",3.97 nM
8,"CN(C(=O)c1ccc(Nc2ncc(C(F)(F)F)c(NCc3cccnc3N(C)S(C)(=O)=O)n2)cc1)C1CCCC1 [Compound 262, N-cyclopentyl-N-methyl-4-({4-[({2-[methyl(methylsulfonyl)amino]pyridin-3-yl}methyl)amino]-5-(trifluoromethyl)pyrimidin-2-yl}amino)benzamide]",5.8 nM
9,"CN(c1ncccc1CNc1nc(Nc2ccnc(N)n2)ncc1C(F)(F)F)S(C)(=O)=O [Compound 299, N-{3-[({2-[(2-aminopyrimidin-4-yl)amino]-5-(trifluoromethyl)pyrimidin-4-yl}amino)methyl]pyridin-2-yl}-N-methylmethane-sulfonamide]",> 188 nM
10,"CN(c1ncccc1CNc1nc(Nc2ccc(CNS(C)(=O)=O)cc2)ncc1C(F)(F)F)S(C)(=O)=O [Compound 30, N-methyl-N-{3-[({2-[(4-{[(methylsulfonyl)amino]methyl}phenyl)amino]-5-(trifluoromethyl)pyrimidin-4-yl}amino)methyl]pyridin-2-yl}methanesulfonamide]",0.72 nM
11,"CN(c1ncccc1CNc1nc(Nc2ccc(C(=O)NCCO)cc2)ncc1C(F)(F)F)S(C)(=O)=O [Compound 244, N-(2-hydroxyethyl)-4-({4-[({2-[methyl(methylsulfonyl)amino]pyridin-3-yl}methyl)amino]-5-(trifluoromethyl)pyrimidin-2-yl}amino)benzamide]",1.11 nM
12,"CN(c1ncccc1CNc1nc(Nc2cccc(C(=O)NC(C)(C)CO)c2)ncc1C(F)(F)F)S(C)(=O)=O [Compound 201, N-(2-hydroxy-1,1-dimethylethyl)-3-({4-[({2-[methyl(methylsulfonyl)amino]pyridin-3-yl}methyl)amino]-5-(trifluoromethyl)pyrimidin-2-yl}amino)benzamide]",1.64 nM
13,"COc1ccc(C(N)=O)cc1Nc1ncc(C(F)(F)F)c(NCc2nccnc2N(C)S(C)(=O)=O)n1 [Compound 307, 4-methoxy-3-({4-[({3-[methyl(methylsulfonyl)amino)pyrazin-2-yl}methyl)amino]-5-(trifluoromethyl)pyrimidin-2-yl}amino)benzamide]",1.11 nM
14,"CN(c1ncccc1CNc1nc(Nc2ccc(-c3nnn[nH]3)cc2)ncc1C(F)(F)F)S(C)(=O)=O [Compound 314, N-methyl-N-[3-({[2-{[4-(1H-tetrazol-5-yl)phenyl]amino}-5-(trifluoromethyl)pyrimidin-4-yl]amino}methyl)pyridin-2-yl]methanesulfonamide]",< 0.595 nM
15,"CN(c1ncccc1CNc1nc(Nc2ccc(CN3CCOCC3)cc2)ncc1C(F)(F)F)S(C)(=O)=O [Compound 349, N-methyl-N-[3-({[2-{[4-(morpholin-4-ylmethyl)phenyl]amino}-5-(trifluoromethyl)pyrimidin-4-yl]amino}methyl)pyridin-2-yl]methanesuifonamide]",< 0.595 nM
16,"CCC(CO)NC(=O)c1cccc(Nc2ncc(C(F)(F)F)c(NCc3cccnc3N(C)S(C)(=O)=O)n2)c1 (centres unmarked) [Compound 203, N-[1-(hydroxymethyl)propyl]-3-({4-[({2-[methyl(methylsulfonyl)amino]pyridin-3-yl}methyl)amino]-5-(trifluoromethyl)pyrirnidin-2-yl}amino)benzamide]",1.13 nM
17,"CN(c1ncccc1CNc1nc(Nc2cccc(C(N)=NO)c2)ncc1C(F)(F)F)S(C)(=O)=O [Compound 408, N′-hydroxy-3-({4-[({2-[methyl(methylsulfonyl)amino]pyridin-3-yl}methyl)amino]-5-(trifluoromethyl)pyrimidin-2-yl}amino)benzenecarboximidamide]",2.29 nM
18,"CN1CCN(c2cccc(Nc3ncc(C(F)(F)F)c(NCc4cccnc4N(C)S(C)(=O)=O)n3)c2)C1=O [Compound 367, N-methyl-N-[3-({[2-{[3-(3-methyl-2-oxoimidazolidin-1-yl)phenyl]amino}-5-(trifluoromethyl)pyrimidin-4-yl]amino}methyl)pyridin-2-yl]methanesulfonamide]",1.64 nM
19,"CC(=O)Nc1cccc(Nc2ncc(C(F)(F)F)c(NCc3cccnc3N(C)S(C)(=O)=O)n2)c1 [Compound 366, N-[3-({4-[({2-[methyl(methylsulfonyl)amino]pyridin-3-yl}methyl)amino]-5-(trifluoromethyl)pyrimidin-2-yl}amino)phenyl]acetamide]",< 0.595 nM
20,"COc1cc(Nc2ncc(C(F)(F)F)c(NCc3cccnc3N(C)S(C)(=O)=O)n2)ccn1 [Compound 93, N-{3-[({2-[(2-methoxypyridin-4-yl)amino]-5-(trifluoromethyl)pyrimidin-4-yl}amino)methyl]pyridin-2-yl}-N-methylmethane-sulfonamide]",0.6 nM
21,"CN(c1ncccc1CNc1nc(Nc2cccc(C(=O)NC3CC3)c2)ncc1C(F)(F)F)S(C)(=O)=O [Example 11, N-cyclopropyl-3-({4-[({2-[methyl(methylsulfonyl)amino]pyridin-3-yl}methyl)amino]-5-(trifluoromethyl)pyrimidin-2-yl}amino)benzamide]",1.86 nM
22,"CNC(=O)c1ccc(Nc2ncc(C(F)(F)F)c(NCc3cccnc3N(C)S(C)(=O)=O)n2)c(C)c1 [Compound 403, N,3-dimethyl-4-({4-[({2-[methyl(methylsulfonyl)amino]pyridin-3-yl}methyl)amino)-5-(trifluoromethyl)pyrimidin-2-yl}amino)benzamide]",1.09 nM
23,"CC(C)[C@@H](CO)NC(=O)c1cccc(Nc2ncc(C(F)(F)F)c(NCc3cccnc3N(C)S(C)(=O)=O)n2)c1 [Compound 179, N-[(1S)-1-(hydroxymethyl)-2-methylpropyl]-3-({4-[({2-[methyl(methylsulfonyl)amino]pyridin-3-yl}methyl)amino]-5-(trifluoromethyl)pyrimidin-2-yl}amino)benzamide]",1.09 nM
24,"CCC[C@H](CO)NC(=O)c1ccc(Nc2ncc(C(F)(F)F)c(NCc3cccnc3N(C)S(C)(=O)=O)n2)cc1 [Compound 257, N-[(1R)-1-(hydroxymethyl)butyl]-4-({4-[({2-[methyl(methylsulfonyl)amino]pyridin-3-yl}methyl)amino]-5-(trifluoromethyl)pyrimidin-2-yl}amino)benzamide]",5.8 nM
25,"Cc1ccc(CNc2nc(Nc3ccc(C(N)=O)cc3)ncc2C(F)(F)F)c(N(C)S(C)(=O)=O)c1 [Compound 109, 4-{[4-({4-methyl-2-[methyl(methylsulfonyl)amino]benzyl}amino)-5-(trifluoromethyl)pyrimidin-2-yl]amino}benzamide]",0.6 nM
26,"Cc1cc(Nc2ncc(C(F)(F)F)c(NCc3ncccc3N(C)S(C)(=O)=O)n2)ccc1C(N)=O [Compound 336, 2-methyl-4-({4-[({3-[methyl(methylsulfonyl)amino]pyridin-2-yl}methyl)amino]-5-(trifluoromethyl)pyrimidin-2-yl)amino)benzamide]",< 0.595 nM
27,"CN(c1ncccc1CNc1nc(Nc2ccc(CN)cc2)ncc1C(F)(F)F)S(C)(=O)=O [Example 4, N-(3-((2-(4-(aminomethyl)phenylamino)-5-(trifluoromethyl)pyrimidin-4-ylamino)methyl)pyridin-2-yl)-N-methylmethanesulfonamide]",0.59 nM
28,"CN(c1ncccc1CNc1nc(Nc2cccc(C(=O)N3CCC3)c2)ncc1C(F)(F)F)S(C)(=O)=O [Compound 125, N-[3-({[2-{[3-(azetidin-1-ylcarbonyl)phenyl]amino}-5-(trifluoromethyl)pyrimldin-4-yl]amino}methyl)pyridin-2-yl]-N-methylmethanesulfon-amide]",1.27 nM
29,"COCC(=O)N1CCC(Nc2ncc(C(F)(F)F)c(NCc3cccnc3N(C)S(C)(=O)=O)n2)CC1 [Compound 55, N-[3-({[2-{[1-(methoxyacetyl)piperidin-4-yl]amino}-5-(trifluoromethyl)pyrimidin-4-yl]amino}methyl)pyridin-2-yl]-N-methylmethane-sulfonamide]",188 nM
